Each block holds one molecule with its values, some of them ahead of it.
Tests used:
[1] = Example 6: buffer capacity titration of parecoxib sodium formulations with added buffer; assay type: physicochemical; conditions: for Improvement in buffer capacity: parecoxib sodium 40 mg/ml f.a.e., acid to adjust pH 8.5 to 7.4, with versus without buffer; for effect of added buffer on buffer capacity: parecoxib sodium formulations tested, PEG 600/WFI
Procedure: The amount of titrant used to titrate each parecoxib sodium/buffer solution was compared with that required to titrate a parecoxib solution without buffer. Percent improvement in buffer capacity was determined by comparing the amount of acid required to adjust pH from 8.5 to 7.4 in the presence versus absence of buffer.

[2] = Example 6: solubility of buffers in PEG 600/water solvent liquid; assay type: physicochemical; conditions: solvent liquid 65% PEG 600 and 35% water, room temperature
[3] = Example 4: storage stability of liquid formulations LF1-LF9 (valdecoxib formed, HPLC); assay type: physicochemical; conditions: PEG/water formulations of Example 4 (PEG 300, 400, 600)
Procedure: Each vial was flushed with nitrogen gas prior to stoppering.
Valdecoxib was measured by HPLC and was calculated as a percentage of parecoxib initially present.

[4] = Example 2: stability of parecoxib sodium in solvent liquids with different solubilizers; assay type: physicochemical; conditions: 55° C., 3 days, FIG. 2
Procedure: (§1) The procedure was similar to that of Example 1. Valdecoxib formed was calculated as a percentage of parecoxib initially present.

[5] = Example 3: stability of parecoxib sodium in PEG-containing solvent liquids; assay type: physicochemical; conditions: 70° C., 7 days, FIG. 3
Procedure: as §1

[6] = Example 1: stability of parecoxib sodium in candidate solubilizers (valdecoxib formed, HPLC); assay type: physicochemical; conditions: 40 mg/ml f.a.e., 70° C., 7 days, FIG. 1
Procedure: Formulations were prepared and sealed in Type I vials. […] Valdecoxib formed was calculated as a percentage of parecoxib initially present.

[7] = conversion of parecoxib to valdecoxib after parenteral administration; assay type: in vivo; conditions: human subject
Description: The term “equal” in this context means equal in molar amount or in absolute amount (i.e., in weight).

[8] = precipitation of parecoxib free acid on downward pH drift of composition; assay type: physicochemical; conditions: parecoxib salt composition, downward pH drift on storage
Description: Presence of precipitated parecoxib free acid in a parenteral composition is undesirable as it can cause local pain and irritation upon injection.

COX-1 = COX-1 (Homo sapiens, UniProt P23219); conditions: cited from earlier work
[9] = cited from earlier work

COX-1, sequence (P23219 24-599): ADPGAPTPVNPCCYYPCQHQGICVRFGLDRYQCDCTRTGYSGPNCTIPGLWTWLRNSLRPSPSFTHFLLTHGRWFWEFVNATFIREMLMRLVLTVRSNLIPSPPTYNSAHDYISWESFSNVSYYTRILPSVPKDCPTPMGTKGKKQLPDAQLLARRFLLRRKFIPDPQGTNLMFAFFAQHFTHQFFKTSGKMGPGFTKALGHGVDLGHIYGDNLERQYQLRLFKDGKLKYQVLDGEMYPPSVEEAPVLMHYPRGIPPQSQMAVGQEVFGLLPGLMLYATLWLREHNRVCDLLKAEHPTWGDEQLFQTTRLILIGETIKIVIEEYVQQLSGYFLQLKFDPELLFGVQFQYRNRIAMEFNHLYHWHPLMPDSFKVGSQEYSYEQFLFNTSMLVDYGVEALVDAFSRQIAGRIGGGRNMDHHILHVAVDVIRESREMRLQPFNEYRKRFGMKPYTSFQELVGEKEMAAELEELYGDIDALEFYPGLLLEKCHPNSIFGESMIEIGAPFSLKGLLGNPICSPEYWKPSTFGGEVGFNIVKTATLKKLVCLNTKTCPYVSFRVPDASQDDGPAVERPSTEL

Compound: N=C(N)NCCC[C@H](N)C(=O)O [L-arginine]
Improvement in buffer capacity ([1]; PEG 600/WFI 65/35 % by weight): negligible

Improvement in buffer capacity ([1]; PEG 600/WFI 55/45 % by weight): negligible
Improvement in buffer capacity ([1]; PEG 600/WFI 65/35 % by weight): negligible
Compound: NCC(=O)O [glycine]

Solubility > 0.01 M [2]: no
Compound: N[C@@H](Cc1c[nH]cn1)C(=O)O [histidine]

Compound: CCC(=O)NS(=O)(=O)c1ccc(-c2c(-c3ccccc3)noc2C)cc1 [parecoxib sodium]
parecoxib sodium stability as a function of PEG molecular weight [3]: increases with increasing PEG molecular weight
buffering effect of parecoxib sodium itself ([1]; less concentrated PEG solutions): weaker buffering effect
buffering effect of parecoxib sodium itself ([1]; more highly concentrated PEG solutions): excellent buffer
stability (valdecoxib formed) ([4]; propylene glycol containing solvent liquids): less so
stability (valdecoxib formed) ([4]; solvent liquids comprising PEG 300, ethanol or DMAC, with or without water): stable
conversion to valdecoxib ([4]; solvent liquids comprising glycerin): significant conversion to valdecoxib
stability (valdecoxib formed) ([5]; 65% PEG 300, PEG 400 or PEG 600 in water): acceptably stable
valdecoxib formed, comparison of PEG grades ([5]; 65% PEG 600 or PEG 400 versus 65% PEG 300 in water): less valdecoxib formed
valdecoxib formed (stability) ([6]; PEG 300, DMAC, 95% ethanol or 10 mM phosphate buffer pH 8.1 versus propylene glycol): less valdecoxib was formed
conversion of parecoxib to valdecoxib ([6]; in presence of glycerin): very rapid

Compound: CCC(=O)NS(=O)(=O)c1ccc(-c2c(-c3ccccc3)noc2C)cc1 [parecoxib, N-[[4-(5-methyl-3-phenylisoxazol-4-yl)phenyl]sulfonyl]propanamide]
conversion to valdecoxib after parenteral administration [7]: rapidly and completely converted to valdecoxib
pH of the composition below which parecoxib precipitates in free acid form [8]: below 7.4
in vitro inhibitory activity against COX-1 (COX-1): weak in vitro inhibitory activity

Compound: CC(=O)[O-].[Na+] [sodium acetate]
Improvement in buffer capacity ([1]; PEG 600/WFI 55/45 % by weight): negligible
Improvement in buffer capacity ([1]; PEG 600/WFI 65/35 % by weight): negligible

Improvement in buffer capacity ([1]; PEG 600/WFI 65/35 % by weight): 14-37%^1
effect of added buffer on buffer capacity [1]: further improved buffer capacity
Compound: O=C1O[C@H]([C@@H](O)CO)C([O-])=C1O.[Na+] [sodium ascorbate]

Compound: CC(O)C(=O)[O-].[Na+] (stereo not drawn) [sodium lactate]
Improvement in buffer capacity ([1]; PEG 600/WFI 65/35 % by weight): negligible

Compound: O=C([O-])/C=C\C(=O)[O-].[Na+].[Na+] [sodium maleate]
Improvement in buffer capacity ([1]; PEG 600/WFI 65/35 % by weight): 21%
effect of added buffer on buffer capacity [1]: further improved buffer capacity

Improvement in buffer capacity ([1]; PEG 600/WFI 55/45 % by weight): 229%
Improvement in buffer capacity ([1]; PEG 600/WFI 65/35 % by weight): 63%
effect of added buffer on buffer capacity [1]: further improved buffer capacity
Solubility > 0.01 M [2]: yes
Compound: NC(CO)(CO)CO [tris, 2-amino-2-(hydroxymethyl)-1,3-propanediol]

Compound: Cc1onc(-c2ccccc2)c1-c1ccc(S(N)(=O)=O)cc1 [valdecoxib]
solubility in water [9]: about 10 μg/ml
in vitro inhibitory activity against COX-1 (COX-1): weak inhibitor

— patent US20040127537A1 (priority 2002, published 2004)
